The subject of one test is 22Rv1 cells. The experiment in a line: Proliferation assay (CellTiter Glo). The test is classed as cell-based, human. As to conditions: 72 h. On the procedure: Cells were seeded at 5000 cells per well (50 μL medium) in 96-well flat bottom white wall plates. After 24 h, 50 μL of medium containing DMSO or compound dilutions (2× final concentration from 1000× stocks) were added to the wells. At the time of compound addition, a reference plate to determine the cell population density at time 0 (TO) was assayed using CellTiter Glo reagent (50 μL added to each well). After 72 h in culture, the remaining plates were assayed using CellTiter Glo. After 30 min of shaking at room temperature, luminescence was analyzed using a CLARIOstar (BMG Labtech) plate reader. Raw values were normalized using GraphPad PRISM software version 9.0.0. Lines of best fit were generated using a four-parameter variable slope least squares regression.

Test [1] has as its system mRNA splicing in 22Rv1 cells. The experiment in a line: RNA sequencing, alternative splicing (rMATS). As to conditions: 8 hr, RNA-seq. The test is classed as cell-based, human. Here is the method:
RNA sequencing libraries were prepared using the NEBNext Ultra II RNA Library Prep Kit for Illumina following manufacturer's instructions (NEB, Ipswich, MA, USA). mRNAs were first enriched with Oligo(dT) beads. Enriched mRNAs were fragmented for 15 minutes at 94° C. First strand and second strand cDNAs were subsequently synthesized. cDNA fragments were end repaired and adenylated at 3′ends, and universal adapters were ligated to cDNA fragments, followed by index addition and library enrichment by limited-cycle PCR. The sequencing libraries were validated on the Agilent TapeStation (Agilent Technologies, Palo Alto, CA, USA), and quantified by using Qubit 2.0 Fluorometer (Invitrogen, Carlsbad, CA) as well as by quantitative PCR (KAPA Biosystems, Wilmington, MA, USA). FASTQ files were first trimmed using Trim_galore (v0.6.4) to remove sequencing adapters and low quality (Q<15) reads. Trimmed sequencing reads were aligned to the human Hg19 reference genome (GENCODE, GRCh37.p13) using STAR (v2.7.5). SAM files were subsequently converted to BAM files, sorted, and indexed using samtools (v1.9). […] Read counting across genomic features was performed using featureCounts (part of the subread package; v1.5.0) using the following parameters: -p -T 20 -O -F GTF -t exon. […]
For quantification of alternative RNA splicing, BAM files generated by STAR/Samtools were analyzed using rMATS (v4.1.1) using the GENCODE (v19) GTF annotation for Hg19 (GRCh37.p13) and the following parameters: -t paired --libType fr-unstranded—readLength 150—novelSS. To utilize reads shorted than 150b.p. resulting from adapter and/or QC trimming by trim_galore, rMATS was programmed to accept soft-clipped reads of variable length. Enumeration of isoform counts was performed using only reads that span the splice junction directly. To identify high confidence AS events, events were considered significant if (i) the inclusion level difference was greater than 20% compared to DMSO, (ii) the False Discovery Rate (FDR) was smaller than 0.05, and (iii) there were a minimum of 20 reads mapping to the splice junction. […]

For `C=CC(=O)N1[C@H](c2ccc3c(c2)OCO3)c2[nH]c3ccccc3c2C[C@H]1C(=O)N1CCOCC1` [WX-02-23, 1-((1R,3S)-1-(benzo[d][1,3]dioxol-S-yl)-3-(morpholine-4-carbonyl)-1,3,4,9-tetrahydro-2H-pyrido [3,4-b]indol-2-yl)prop-2-en-1-one], in the test with 22Rv1 cells, the “fold greater antiproliferative activity than MY-7A” value is about 4 fold. Further, the IC50 (commonly the concentration needed to halve the response being measured) in the test on 22Rv1 cells (read-out: antiproliferative activity IC50) turned out to be 170 nM. For the same compound, the mRNA splicing changes result in test [1] is “induction of both intron retention and exon skipping events”.

For `C=CC(=O)N1[C@@H](c2ccc3c(c2)OCO3)c2[nH]c3ccccc3c2C[C@@H]1C(=O)N1CCOCC1` [WX-02-43, 1-((1S,3R)-1-(benzo[d][1,3]dioxol-5-yl)-3-(morpholine-4-carbonyl)-1,3,4,9-tetrahydro-2H-pyrido [3,4-b]indol-2-yl)prop-2-en-1-one], in the test on 22Rv1 cells, the “anti-proliferative effect” value was “inactive enantiomer”. In addition, the mRNA splicing changes result in test [1] was “No such splicing effects were observed”.

(Values after patent US20250034216A1, “STEREOSELECTIVE COVALENT LIGANDS FOR ONCOGENIC AND IMMUNOLOGICAL PROTEINS” (The Scripps Research Institute, priority 2021, published 2025).)
